Laboratory results: patent US10653146B2, “Microbiocidal oxadiazole derivatives” (SYNGENTA PARTICIPATIONS AG, priority 2016, dated 2020)

Key:
[1] = system: Puccinia recondita f. Sp. Tritici; assay: Fungicidal activity against Puccinia recondita f. sp. tritici / wheat / leaf disc preventative (brown rust); type: in vivo; conditions: foliar, 200 ppm in the applied formulation, wheat leaf segments cv. Kanzler, inoculated 1 day after application, assessed 7 to 9 days after application, read-out: disease control compared to untreated control leaf disks
Method: Leaf disks or leaf segments of various plant species are cut from plants grown in a greenhouse. The cut leaf disks or segments are placed in multiwell plates (24-well format) onto water agar. The leaf disks are sprayed with a test solution before (preventative) or after (curative) inoculation. Compounds to be tested are prepared as DMSO solutions (max. 10 mg/ml) which are diluted to the appropriate concentration with 0.025% Tween20 just before spraying. The inoculated leaf disks or segments are incubated under defined conditions (temperature, relative humidity, light, etc.) according to the respective test system. A single evaluation of disease level is carried out 3 to 14 days after inoculation, depending on the pathosystem. Percent disease control relative to the untreated check leaf disks or segments is then calculated. Wheat leaf segments cv. Kanzler were placed on agar in multiwell plates (24-well format) and sprayed with the formulated test compound diluted in water. The leaf disks were inoculated with a spore suspension of the fungus 1 day after application. The inoculated leaf segments were incubated at 19° C. and 75% relative humidity (rh) under a light regime of 12 hours light/12 hours darkness in a climate cabinet and the activity of a compound was assessed as percent disease control compared to untreated when an appropriate level of disease damage appears in untreated check leaf segments (7 to 9 days after application). The following compounds at 200 ppm in the applied formulation give at least 80% disease control in this test when compared to untreated control leaf disks under the same conditions, which show extensive disease development.

[2] = system: Puccinia recondite f. Sp. Tritici; assay: Fungicidal activity against Puccinia recondite f. sp. tritici / wheat / leaf disc curative (brown rust); type: in vivo; conditions: foliar, 200 ppm in the applied formulation, wheat leaf segments cv. Kanzler, applied 1 day after inoculation, assessed 6 to 8 days after application, read-out: disease control compared to untreated control leaf disks
Method: Leaf disks or leaf segments of various plant species are cut from plants grown in a greenhouse. The cut leaf disks or segments are placed in multiwell plates (24-well format) onto water agar. The leaf disks are sprayed with a test solution before (preventative) or after (curative) inoculation. Compounds to be tested are prepared as DMSO solutions (max. 10 mg/ml) which are diluted to the appropriate concentration with 0.025% Tween20 just before spraying. The inoculated leaf disks or segments are incubated under defined conditions (temperature, relative humidity, light, etc.) according to the respective test system. A single evaluation of disease level is carried out 3 to 14 days after inoculation, depending on the pathosystem. Percent disease control relative to the untreated check leaf disks or segments is then calculated.
Wheat leaf segments cv. Kanzler are placed on agar in multiwell plates (24-well format). The leaf segments are then inoculated with a spore suspension of the fungus. Plates were stored in darkness at 19° C. and 75% relative humidity. The formulated test compound diluted in water was applied 1 day after inoculation. The leaf segments were incubated at 19° C. and 75% relative humidity under a light regime of 12 hours light/12 hours darkness in a climate cabinet and the activity of a compound was assessed as percent disease control compared to untreated when an appropriate level of disease damage appears in untreated check leaf segments (6 to 8 days after application).
The following compounds at 200 ppm in the applied formulation give at least 80% disease control in this test when compared to untreated control leaf disks under the same conditions, which show extensive disease development.

[3] = system: Glomerella lagenarium (Colletotrichum lagenarium); assay: Fungicidal activity against Glomerella lagenarium (Colletotrichum lagenarium) liquid culture / cucumber / preventative (anthracnose); type: cell-based; conditions: Colletotrichum orbiculare; 20 ppm in the applied formulation; liquid culture in PDB, 24° C.; 3 to 4 days after application; read-out: disease control compared to untreated control (inhibition of growth measured photometrically)
Method: Mycelia fragments or conidia suspensions of a fungus prepared either freshly from liquid cultures of the fungus or from cryogenic storage, are directly mixed into nutrient broth. DMSO solutions of the test compound (max. 10 mg/ml) are diluted with 0.025% Tween20 by a factor of 50 and 10 μl of this solution is pipetted into a microtiter plate (96-well format). The nutrient broth containing the fungal spores/mycelia fragments is then added to give an end concentration of the tested compound. The test plates are incubated in the dark at 24° C. and 96% relative humidity. The inhibition of fungal growth is determined photometrically after 2 to 7 days, depending on the pathosystem, and percent antifungal activity relative to the untreated check is calculated.
Conidia of the fungus from cryogenic storage are directly mixed into nutrient broth (PDB—potato dextrose broth). After placing a (DMSO) solution of test compound into a microtiter plate (96-well format), the nutrient broth containing the fungal spores is added. The test plates are incubated at 24° C. and the inhibition of growth is measured photometrically 3 to 4 days after application.
The following compounds at 20 ppm in the applied formulation give at least 80% disease control in this test when compared to untreated control under the same conditions, which show extensive disease development.

melting point | Compound | pest or weed control at 200 ppm [1] | pest or weed control at 200 ppm [2] | inhibition at 20 ppm [3]
147 to 148 °C | O=C(NCCO)C(=O)c1ccc(-c2noc(C(F)(F)F)n2)cc1 [Compound 1.1, N-(2-hydroxy-ethyl)-2-oxo-2-[4-[5-(trifluoromethyl)-1,2,4-oxadiazol-3-yl]phenyl]acetamide] | ≥ 80% | ≥ 80% | ≥ 80%
– | CN(C)CCNC(=O)C(=O)c1ccc(-c2noc(C(F)(F)F)n2)cc1 [Compound 1.2, N-[2-(dimethyl-amino)ethyl]-2-oxo-2-[4-[5-(trifluoromethyl)-1,2,4-oxadiazol-3-yl]phenyl]acetamide] | – | – | ≥ 80%
– | CON1CCN(C(=O)C(=O)c2ccc(-c3noc(C(F)(F)F)n3)cc2)CC1 [Compound 1.3, 1-(4-methoxypiperazin-1-yl)-2-[4-[5-(trifluoromethyl)-1,2,4-oxadiazol-3-yl]phenyl]ethane-1,2-dione] | ≥ 80% | – | ≥ 80%
– | O=C(NOCC(F)F)C(=O)c1ccc(-c2noc(C(F)(F)F)n2)cc1 [Compound 1.4, N-(2,2-difluoroethoxy)-2-oxo-2-[4-[5-(trifluoromethyl)-1,2,4-oxadiazol-3-yl]phenyl]acetamide] | ≥ 80% | – | ≥ 80%
– | CN(C)C(=O)C(=O)c1ccc(-c2noc(C(F)(F)F)n2)cc1 [Compound 1.5, N,N-dimethyl-2-oxo-2-[4-[5-(trifluoromethyl)-1,2,4-oxadiazol-3-yl]phenyl]acetamide] | ≥ 80% | ≥ 80% | ≥ 80%
– | C=CCONC(=O)C(=O)c1ccc(-c2noc(C(F)(F)F)n2)cc1 [Compound 1.6, N-allyloxy-2-oxo-2-[4-[5-(trifluoromethyl)-1,2,4-oxadiazol-3-yl]phenyl]acetamide] | ≥ 80% | – | –
167 to 168 °C | CNC(=O)CNC(=O)C(=O)c1ccc(-c2noc(C(F)(F)F)n2)cc1 [Compound 1.7, N-[2-(methyl-amino)-2-oxo-ethyl]-2-oxo-2-[4-[5-(trifluoromethyl)-1,2,4-oxadiazol-3-yl]phenyl]acetamide] | ≥ 80% | ≥ 80% | ≥ 80%
209 to 210 °C | O=C(NCCNC(=O)C1CC1)C(=O)c1ccc(-c2noc(C(F)(F)F)n2)cc1 [Compound 1.8, N-[2-[[2-oxo-2-[4-[5-(trifluoromethyl)-1,2,4-oxadiazol-3-yl]phenyl]acet-yl]amino]eth-yl]cyclopropane-carboxamide] | ≥ 80% | – | ≥ 80%
213 to 214 °C | Cl.NCCNC(=O)C(=O)c1ccc(-c2noc(C(F)(F)F)n2)cc1 [Compound 1.9, 2-[[2-oxo-2-[4-[5-(trifluoromethyl)-1,2,4-oxadiazol-3-yl]phenyl]acet-yl]amino]ethyl-ammonium; chloride] | ≥ 80% | ≥ 80% | ≥ 80%
– | O=C(NCC(F)F)C(=O)c1ccc(-c2noc(C(F)(F)F)n2)cc1 [Compound 1.10, N-(2,2-difluoroethyl)-2-oxo-2-[4-[5-(trifluoromethyl)-1,2,4-oxadiazol-3-yl]phenyl]acetamide] | ≥ 80% | ≥ 80% | ≥ 80%
– | CC(=O)NCCNC(=O)C(=O)c1ccc(-c2noc(C(F)(F)F)n2)cc1 [Compound 1.11, N-(2-acetamidoethyl)-2-oxo-2-[4-[5-(trifluoromethyl)-1,2,4-oxadiazol-3-yl]phenyl]acetamide] | ≥ 80% | ≥ 80% | ≥ 80%
65.1 to 68.2 °C | CCCCNC(=O)C(=O)c1ccc(-c2noc(C(F)(F)F)n2)cc1 [Compound 1.12, N-butyl-2-oxo-2-[4-[5-(trifluoromethyl)-1,2,4-oxadiazol-3-yl]phenyl]acetamide] | ≥ 80% | ≥ 80% | ≥ 80%
– | CCCN(C)C(=O)C(=O)c1ccc(-c2noc(C(F)(F)F)n2)cc1 [Compound 1.22, N-methyl-2-oxo-N-propyl-2-[4-[5-(trifluoromethyl)-1,2,4-oxadiazol-3-yl]phenyl]acetamide] | ≥ 80% | ≥ 80% | ≥ 80%
– | CSCCNC(=O)C(=O)c1ccc(-c2noc(C(F)(F)F)n2)cc1 [Compound 1.23, N-(2-methyl-sulfanylethyl)-2-oxo-2-[4-[5-(trifluoromethyl)-1,2,4-oxadiazol-3-yl]phenyl]acetamide] | ≥ 80% | ≥ 80% | ≥ 80%
– | O=C(NCC1COCCO1)C(=O)c1ccc(-c2noc(C(F)(F)F)n2)cc1 (centres unmarked) [Compound 1.28, N-(1,4-dioxan-2-ylmethyl)-2-oxo-2-[4-[5-(trifluoromethyl)-1,2,4-oxadiazol-3-yl]phenyl]acetamide] | ≥ 80% | ≥ 80% | ≥ 80%
– | Cc1ccsc1CN(C)C(=O)C(=O)c1ccc(-c2noc(C(F)(F)F)n2)cc1 [Compound 1.29, N-methyl-N-[(3-methyl-2-thienyl)methyl]-2-oxo-2-[4-[5-(trifluoromethyl)-1,2,4-oxadiazol-3-yl]phenyl]acetamide] | – | – | ≥ 80%
– | COCCN(CCOC)C(=O)C(=O)c1ccc(-c2noc(C(F)(F)F)n2)cc1 [Compound 1.30, N,N-bis(2-methoxyethyl)-2-oxo-2-[4-[5-(trifluoromethyl)-1,2,4-oxadiazol-3-yl]phenyl]acetamide] | – | ≥ 80% | ≥ 80%
– | CCON(C)C(=O)C(=O)c1ccc(-c2noc(C(F)(F)F)n2)cc1 [Compound 1.32, N-ethoxy-N-methyl-2-oxo-2-[4-[5-(trifluoromethyl)-1,2,4-oxadiazol-3-yl]phenyl]acetamide] | ≥ 80% | ≥ 80% | ≥ 80%
– | CN(C(=O)C(=O)c1ccc(-c2noc(C(F)(F)F)n2)cc1)c1ccccc1 [Compound 1.33, N-methyl-2-oxo-N-phenyl-2-[4-[5-(trifluoromethyl)-1,2,4-oxadiazol-3-yl]phenyl]acetamide] | – | – | ≥ 80%
89 to 90 °C | COC(=O)CNC(=O)C(=O)c1ccc(-c2noc(C(F)(F)F)n2)cc1 [Compound 1.36, methyl 2-[[2-oxo-2-[4-[5-(trifluoromethyl)-1,2,4-oxadiazol-3-yl]phenyl]acet-yl]amino]acetate] | – | ≥ 80% | ≥ 80%
– | COCCNC(=O)C(=O)c1ccc(-c2noc(C(F)(F)F)n2)cc1 [Compound 1.40, N-(2-methoxy-ethyl)-2-oxo-2-[4-[5-(trifluoromethyl)-1,2,4-oxadiazol-3-yl]phenyl]acetamide] | ≥ 80% | ≥ 80% | ≥ 80%
